Laboratory results from PMC10600005 (Nature, 2023).

Biological target: T1, nuclease P1 (P1 nuclease) (Penicillium citrinum, UniProt P24289)
T1 construct: commercial enzyme (New England Biolabs)
T1 sequence (P24289 1-270): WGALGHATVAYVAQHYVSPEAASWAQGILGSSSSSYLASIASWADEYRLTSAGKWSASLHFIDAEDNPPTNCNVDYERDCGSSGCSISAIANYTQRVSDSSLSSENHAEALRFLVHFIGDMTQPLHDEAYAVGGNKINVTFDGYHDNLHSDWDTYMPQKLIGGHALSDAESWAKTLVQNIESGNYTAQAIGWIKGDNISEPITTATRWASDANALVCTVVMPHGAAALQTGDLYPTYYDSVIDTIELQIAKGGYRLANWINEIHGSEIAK
Test: HPLC product analysis
Format: biochemical
Conditions: 50 mM sodium acetate pH 5.5, 37 C, 1 h, 100 uM substrate

Row | Compound | HPLC product analysis | HPLC product analysis (partial degradation)
1 | Nc1ncnc2c1ncn2[C@@H]1O[C@H](COP(=O)(O)O[C@H]2[C@@H](O)[C@H](n3cnc4c(N)ncnc43)O[C@@H]2CSCC[C@H](N)C(=O)O)[C@@H](O)[C@H]1O [SAH-AMP] | SAH-AMP was completely degraded by nuclease P1 | 
2 | C[S+](CC[C@H](N)C(=O)O)C[C@H]1O[C@@H](n2cnc3c(N)ncnc32)[C@H](O)[C@@H]1OP(=O)(O)OC[C@H]1O[C@@H](n2cnc3c(N)ncnc32)[C@H](O)[C@@H]1O (some centres unmarked) [SAM-AMP] |  | we observed only partial degradation of SAM-AMP
